One assay concerns the target T1, hTRAAK (Homo sapiens, UniProt Q9NYG8).
T1 construct: expressed in transfected cells; host or cells: tsA-201, transient, pcDNA3.1 vector
T1 sequence (Q9NYG8 1-393): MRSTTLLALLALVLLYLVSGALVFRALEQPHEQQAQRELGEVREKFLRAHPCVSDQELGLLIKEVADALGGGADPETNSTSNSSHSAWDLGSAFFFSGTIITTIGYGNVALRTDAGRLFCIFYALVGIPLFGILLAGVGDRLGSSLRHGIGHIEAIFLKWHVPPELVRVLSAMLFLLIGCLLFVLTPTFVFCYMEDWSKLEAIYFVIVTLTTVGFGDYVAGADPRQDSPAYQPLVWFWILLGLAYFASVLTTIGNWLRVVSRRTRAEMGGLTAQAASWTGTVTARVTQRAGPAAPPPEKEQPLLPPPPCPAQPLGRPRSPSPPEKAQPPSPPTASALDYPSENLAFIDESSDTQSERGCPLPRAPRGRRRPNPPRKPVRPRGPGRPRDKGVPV
Put plainly: Whole-cell patch clamp, transiently transfected tsA-201 cells, TRAAK. It counts as cell-based. As to the method:
(§1) Recordings of hTREK1, hTREK1∆N, hTREK2, hTRAAK and […] currents from transiently transfected tsA‐201 cells were performed using methods as described in Veale and Mathie (2016). Briefly, the pcDNA3.1 vector was cloned with the gene of interest, and these vectors and a similar vector containing GFP were incorporated into the tsA201 cells (0.5 μg per well) using the calcium phosphate method. The cells were incubated for 6–12 h at 37°C in […] and 5% carbon dioxide. Cells were then washed using a PBS solution and used for experiments after 24 h.
(§2) Currents were recorded using whole‐cell patch‐clamp using an Axopatch 1D amplifier. Cells were placed in a recording chamber filled with an external medium composed of 145 mM, NaCl, 2.5 mM KCl, 3 mM MgCl2, 1 mM CaCl2 and 10 mM HEPES (pH to 7.4, using NaOH). The internal medium used in the glass pipette comprised 150 mM KCl, 3 mM MgCl2, 5 mM (or 0.1 mM) EGTA and 10 mM HEPES (pH to 7.4, using KOH). GI‐530159 was applied by bath perfusion. Currents were recorded and analysed using pCLAMP 10.2 software Microsoft Excel. The voltage protocol used for recording current through K2P channels was as previously described (Veale and Mathie, 2016). For analysis, we measured the current difference between the −80 and −40 mV steps.
Background: Patch clamp records ionic current or voltage across a cell membrane.

A further assay has as its target T2, hTREK1 (Homo sapiens, UniProt O95069).
T2 sequence (O95069 1-426): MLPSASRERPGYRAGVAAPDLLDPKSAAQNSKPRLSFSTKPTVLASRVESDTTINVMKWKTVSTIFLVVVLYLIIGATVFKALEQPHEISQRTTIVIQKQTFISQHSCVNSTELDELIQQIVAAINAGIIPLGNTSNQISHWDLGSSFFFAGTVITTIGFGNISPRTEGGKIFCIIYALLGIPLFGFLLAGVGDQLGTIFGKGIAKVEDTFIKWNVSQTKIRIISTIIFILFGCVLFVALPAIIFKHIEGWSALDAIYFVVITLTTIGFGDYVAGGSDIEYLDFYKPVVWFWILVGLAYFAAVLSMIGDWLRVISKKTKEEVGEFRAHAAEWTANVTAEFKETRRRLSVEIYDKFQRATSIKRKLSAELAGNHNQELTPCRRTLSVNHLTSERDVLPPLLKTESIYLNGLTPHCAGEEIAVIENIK
Nature of the assay: Whole-cell patch clamp, transiently transfected tsA-201 cells, TREK1. It counts as cell-based. As to conditions: 1 μM, n = 6. Also on record: expressed in transfected cells; host or cells: tsA-201, transient, pcDNA3.1 vector, GFP from a separate vector. As to the method: as §1, §2

The target of a further assay is NaV1.2 (Homo sapiens, UniProt Q99250). Nature of the assay: Sodium channel selectivity, NaV1.2. As to conditions: read-out: EC50 against NaV1.2. It counts as cell-based.
Another assay concerns the target NaV1.8 (Homo sapiens, UniProt Q9Y5Y9). Put plainly: Sodium channel selectivity, NaV1.8. The note with it: read-out: EC50 against NaV1.8. It counts as cell-based.
The next assay addresses T3, hTREK1∆N (Homo sapiens, UniProt O95069).
T3 construct: expressed in transfected cells; host or cells: tsA-201, transient, pcDNA3.1 vector
Nature of the assay: Whole-cell patch clamp, transiently transfected tsA-201 cells, TREK1ΔN. It counts as cell-based. As to conditions: 1 μM, n = 5. How it is done: as §1, §2

The target in the next assay is TASK2 (K2P5.1) (Homo sapiens, UniProt O95279). Put plainly: Rb+ efflux assay, TASK2. It counts as cell-based.
Chain of TASK2 (K2P5.1) (O95279 whole entry, species assumed): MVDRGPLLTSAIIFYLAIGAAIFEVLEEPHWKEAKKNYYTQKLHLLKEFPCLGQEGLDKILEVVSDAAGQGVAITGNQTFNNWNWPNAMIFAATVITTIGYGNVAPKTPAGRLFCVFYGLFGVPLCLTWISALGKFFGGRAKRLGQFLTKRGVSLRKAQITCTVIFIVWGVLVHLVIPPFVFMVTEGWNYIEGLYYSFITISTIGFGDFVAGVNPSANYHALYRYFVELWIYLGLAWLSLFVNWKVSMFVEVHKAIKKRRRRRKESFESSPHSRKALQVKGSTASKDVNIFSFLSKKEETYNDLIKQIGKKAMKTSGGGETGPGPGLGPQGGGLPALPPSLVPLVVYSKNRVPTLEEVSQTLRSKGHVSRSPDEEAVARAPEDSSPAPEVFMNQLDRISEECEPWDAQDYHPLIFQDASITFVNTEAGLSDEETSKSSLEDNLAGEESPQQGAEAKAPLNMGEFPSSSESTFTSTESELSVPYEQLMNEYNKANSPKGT
Another assay addresses T4, THIK1 (K2P13.1) (Homo sapiens, UniProt Q9HB14).
T4 construct: expressed in transfected cells; host or cells: tsA-201, transient, pcDNA3.1 vector
Nature of the assay: Whole-cell patch clamp, THIK1 channels. It counts as cell-based. The note with it: 1 μM; n = 7. How it is done:
as §1, §2

A further assay concerns the target T5, K2P18.1 (TRESK) (Homo sapiens, UniProt Q7Z418).
T5 construct: expressed in transfected cells
Nature of the assay: Manual patch clamp in recombinant cell lines, TRESK. It counts as cell-based. As to conditions: 10 μM; n = 4.

For another assay, the target named is Kv7.2 (Homo sapiens, UniProt O43526). Nature of the assay: Rb+ efflux assay, Kv7.2. It counts as cell-based.
Assay [1] deals with Na current in DRG neurons. Nature of the assay: Voltage-clamp recordings from DRG neurons, Na current. It counts as cell-based, rat. As to the method: Acutely dissociated rat DRG cells were obtained according to a previously described protocol (Passmore, 2005). All animal care and experimental procedures complied with guidelines and were approved by the Pfizer Neusentis Institutional Animal Use and Care Committee. Animal studies are reported in compliance with the ARRIVE guidelines (Kilkenny et al., 2010; McGrath and Lilley, 2015).Cells were plated on coated coverslips (poly‐D‐lysine/laminin, BD Biosciences, San Jose, CA, USA) prior to patching on the same day. Cells were perfused with an extracellular solution containing (in mM): 135 NaCl, 4.7 KCl, 1 CaCl2, 1 MgCl2, 10 HEPES and 10 glucose, pH 7.4, with NaOH (310 mOsmol·L^−1). Pipette solution contained (in mM): 130 KCl, 1 MgCl2, 5 MgATP, 10 HEPES and 5 EGTA, pH adjusted to 7.3 with KOH (290 mOsmol·L^−1). For whole‐cell recordings, currents were filtered at 2 kHz and sampled at 5 kHz. Series resistance was compensated for by up to 80%. For current‐clamp recordings, action potential firing and resting membrane potential (RMP) were recorded from small cells ([…]). GI‐530159 was dissolved in 0.3% DMSO as 10 mM stock and applied in the vicinity of cells using a gravity fed perfusion system (MSC‐200, Bio‐Logic SAS, Claix, France).

The next assay addresses TASK3 (K2P9.1) (Homo sapiens, UniProt Q9NPC2). Put plainly: Activated current, TASK3 channels. It counts as cell-based. As to conditions: 1 μM; n = 5.
The target of the next assay is NaV1.7 (Homo sapiens, UniProt Q15858). Put plainly: Sodium channel selectivity, NaV1.7. It counts as cell-based. As to conditions: read-out: EC50 against NaV1.7.
Chain of NaV1.7 (Q15858 whole entry): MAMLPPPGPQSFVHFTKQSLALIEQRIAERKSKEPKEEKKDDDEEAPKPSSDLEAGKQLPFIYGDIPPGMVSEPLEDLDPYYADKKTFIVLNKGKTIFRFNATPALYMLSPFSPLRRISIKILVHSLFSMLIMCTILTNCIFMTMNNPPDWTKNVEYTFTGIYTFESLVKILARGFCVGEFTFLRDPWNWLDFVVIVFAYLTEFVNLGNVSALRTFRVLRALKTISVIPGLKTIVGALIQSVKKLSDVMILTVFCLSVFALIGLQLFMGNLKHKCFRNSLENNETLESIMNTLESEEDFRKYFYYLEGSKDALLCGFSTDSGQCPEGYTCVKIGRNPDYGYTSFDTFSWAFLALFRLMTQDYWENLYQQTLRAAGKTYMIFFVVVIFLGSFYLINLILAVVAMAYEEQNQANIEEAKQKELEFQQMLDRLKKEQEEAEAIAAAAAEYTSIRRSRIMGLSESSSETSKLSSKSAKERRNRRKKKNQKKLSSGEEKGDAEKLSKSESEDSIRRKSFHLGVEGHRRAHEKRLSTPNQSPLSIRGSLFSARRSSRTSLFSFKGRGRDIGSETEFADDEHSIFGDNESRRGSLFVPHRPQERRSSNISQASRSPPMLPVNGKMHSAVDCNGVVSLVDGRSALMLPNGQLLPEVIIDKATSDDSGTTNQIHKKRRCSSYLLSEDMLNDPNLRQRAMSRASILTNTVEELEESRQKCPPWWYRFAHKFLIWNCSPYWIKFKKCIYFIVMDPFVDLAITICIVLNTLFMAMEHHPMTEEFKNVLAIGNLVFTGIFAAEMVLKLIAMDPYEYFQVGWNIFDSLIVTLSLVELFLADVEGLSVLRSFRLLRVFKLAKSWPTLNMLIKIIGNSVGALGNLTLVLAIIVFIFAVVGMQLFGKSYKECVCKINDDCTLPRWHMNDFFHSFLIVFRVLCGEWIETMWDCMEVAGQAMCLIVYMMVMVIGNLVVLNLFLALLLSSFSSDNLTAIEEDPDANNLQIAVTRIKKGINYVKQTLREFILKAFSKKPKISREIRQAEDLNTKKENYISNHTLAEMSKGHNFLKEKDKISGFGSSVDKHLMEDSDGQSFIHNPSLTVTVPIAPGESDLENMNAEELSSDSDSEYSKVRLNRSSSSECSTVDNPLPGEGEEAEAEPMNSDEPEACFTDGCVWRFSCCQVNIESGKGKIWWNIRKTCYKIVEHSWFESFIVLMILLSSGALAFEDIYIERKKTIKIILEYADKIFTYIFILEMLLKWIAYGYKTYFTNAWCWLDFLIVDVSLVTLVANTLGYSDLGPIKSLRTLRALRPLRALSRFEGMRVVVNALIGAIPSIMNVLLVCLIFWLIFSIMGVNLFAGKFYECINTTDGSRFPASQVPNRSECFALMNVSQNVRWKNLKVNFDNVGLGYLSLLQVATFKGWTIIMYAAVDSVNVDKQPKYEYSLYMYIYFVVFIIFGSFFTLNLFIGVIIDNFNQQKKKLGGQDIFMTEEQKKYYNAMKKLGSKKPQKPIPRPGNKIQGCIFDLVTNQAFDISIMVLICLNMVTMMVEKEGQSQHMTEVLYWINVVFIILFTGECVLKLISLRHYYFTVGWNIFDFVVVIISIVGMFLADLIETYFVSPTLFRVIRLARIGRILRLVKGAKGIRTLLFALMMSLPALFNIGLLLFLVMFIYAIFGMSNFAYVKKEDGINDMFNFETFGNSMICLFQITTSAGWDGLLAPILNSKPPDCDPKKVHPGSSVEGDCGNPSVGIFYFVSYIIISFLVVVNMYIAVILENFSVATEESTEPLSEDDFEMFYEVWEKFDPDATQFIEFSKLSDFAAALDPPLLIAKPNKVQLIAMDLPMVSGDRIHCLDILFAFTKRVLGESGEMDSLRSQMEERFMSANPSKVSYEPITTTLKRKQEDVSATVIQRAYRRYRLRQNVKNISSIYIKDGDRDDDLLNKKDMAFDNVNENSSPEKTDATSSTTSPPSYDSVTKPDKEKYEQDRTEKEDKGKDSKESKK

Chain of NaV1.8 (Q9Y5Y9 whole entry): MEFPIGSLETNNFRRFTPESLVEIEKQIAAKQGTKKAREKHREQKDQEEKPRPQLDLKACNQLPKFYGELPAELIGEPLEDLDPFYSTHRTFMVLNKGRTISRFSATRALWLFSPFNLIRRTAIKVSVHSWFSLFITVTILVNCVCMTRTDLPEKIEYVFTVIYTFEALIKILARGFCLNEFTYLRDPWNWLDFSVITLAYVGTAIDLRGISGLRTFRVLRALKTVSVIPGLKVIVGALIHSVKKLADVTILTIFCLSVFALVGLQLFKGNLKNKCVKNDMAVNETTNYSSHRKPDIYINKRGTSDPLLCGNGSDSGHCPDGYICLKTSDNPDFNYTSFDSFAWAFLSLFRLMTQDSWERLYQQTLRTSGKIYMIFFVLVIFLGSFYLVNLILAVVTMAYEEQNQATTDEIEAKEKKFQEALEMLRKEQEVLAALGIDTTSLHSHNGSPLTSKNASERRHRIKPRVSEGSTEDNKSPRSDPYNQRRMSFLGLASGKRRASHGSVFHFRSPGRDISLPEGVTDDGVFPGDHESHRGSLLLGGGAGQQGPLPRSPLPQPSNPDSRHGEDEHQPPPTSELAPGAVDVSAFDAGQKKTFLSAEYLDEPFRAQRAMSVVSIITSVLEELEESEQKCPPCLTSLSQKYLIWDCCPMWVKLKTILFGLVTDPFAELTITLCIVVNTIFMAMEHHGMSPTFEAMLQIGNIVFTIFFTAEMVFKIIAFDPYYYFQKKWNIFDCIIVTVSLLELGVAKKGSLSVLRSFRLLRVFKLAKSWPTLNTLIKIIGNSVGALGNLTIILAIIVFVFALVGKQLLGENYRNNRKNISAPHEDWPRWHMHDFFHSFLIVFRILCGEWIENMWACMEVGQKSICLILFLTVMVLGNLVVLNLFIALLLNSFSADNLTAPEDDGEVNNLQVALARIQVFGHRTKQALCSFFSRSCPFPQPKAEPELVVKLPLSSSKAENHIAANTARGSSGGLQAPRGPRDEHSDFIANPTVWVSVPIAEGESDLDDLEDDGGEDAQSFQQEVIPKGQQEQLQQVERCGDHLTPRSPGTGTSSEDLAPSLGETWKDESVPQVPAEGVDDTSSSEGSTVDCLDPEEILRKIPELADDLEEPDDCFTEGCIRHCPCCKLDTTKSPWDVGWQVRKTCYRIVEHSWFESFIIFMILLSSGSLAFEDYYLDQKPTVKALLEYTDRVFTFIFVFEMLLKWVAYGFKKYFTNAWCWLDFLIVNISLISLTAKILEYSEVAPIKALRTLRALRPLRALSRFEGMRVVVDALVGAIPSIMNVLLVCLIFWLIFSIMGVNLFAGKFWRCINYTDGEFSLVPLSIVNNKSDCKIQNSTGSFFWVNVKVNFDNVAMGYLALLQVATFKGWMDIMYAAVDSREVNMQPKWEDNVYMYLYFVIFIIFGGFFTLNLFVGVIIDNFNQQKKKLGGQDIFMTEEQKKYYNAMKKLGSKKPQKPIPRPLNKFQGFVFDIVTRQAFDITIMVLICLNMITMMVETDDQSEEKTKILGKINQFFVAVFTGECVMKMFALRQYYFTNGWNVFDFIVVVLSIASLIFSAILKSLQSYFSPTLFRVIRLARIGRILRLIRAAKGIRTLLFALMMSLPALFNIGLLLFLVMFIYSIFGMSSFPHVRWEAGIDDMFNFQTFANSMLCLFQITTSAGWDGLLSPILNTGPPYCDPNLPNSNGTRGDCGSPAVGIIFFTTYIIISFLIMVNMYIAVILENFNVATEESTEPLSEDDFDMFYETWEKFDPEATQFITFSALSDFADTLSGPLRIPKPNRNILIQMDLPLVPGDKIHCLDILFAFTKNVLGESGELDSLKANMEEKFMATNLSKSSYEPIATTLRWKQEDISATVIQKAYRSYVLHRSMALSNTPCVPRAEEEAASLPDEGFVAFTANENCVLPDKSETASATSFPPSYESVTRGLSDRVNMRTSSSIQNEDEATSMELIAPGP
T4 sequence (Q9HB14 whole entry): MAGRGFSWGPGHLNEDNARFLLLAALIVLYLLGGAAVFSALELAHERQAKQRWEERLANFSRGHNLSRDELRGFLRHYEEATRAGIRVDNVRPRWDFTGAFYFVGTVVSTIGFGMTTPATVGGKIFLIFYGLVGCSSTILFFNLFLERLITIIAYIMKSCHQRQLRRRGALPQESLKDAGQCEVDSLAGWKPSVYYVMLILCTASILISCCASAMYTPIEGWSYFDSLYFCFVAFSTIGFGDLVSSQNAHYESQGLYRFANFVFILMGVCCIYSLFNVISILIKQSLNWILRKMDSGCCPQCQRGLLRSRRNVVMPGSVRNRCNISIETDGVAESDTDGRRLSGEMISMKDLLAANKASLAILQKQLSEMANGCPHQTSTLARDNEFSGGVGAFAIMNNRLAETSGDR

One may read the EC50 as the concentration at which the effect is half-maximal. Turning to `Nc1ccc(Oc2ccc(C(c3ccc(Oc4ccc(N)cc4)cc3)(C(F)(F)F)C(F)(F)F)cc2)cc1` [GI‐530159, 4,4′‐(hexafluoroisopropylidene)bis(p‐phenyleneoxy)dianiline], the “enhancement of TRAAK current” value on hTRAAK (1 μM, tsA-201, n = 7) worked out at 2 ± 10%. Moreover, the “effect on TRAAK channels” value on hTRAAK (10 μM) is recorded as “no detectable effect”. The “enhancement of TREK1 current” value on hTREK1 is recorded as 69 ± 12%. In addition, the EC50 at NaV1.2, on NaV1.8 and on NaV1.7 was greater than 100 µM throughout. The “enhancement of TREK1ΔN current” value at hTREK1∆N is recorded as 377 ± 57%. Also, the “activator effect on TASK2 (K2P5.1)” value at TASK2 (K2P5.1) is recorded as “no activator effects”. For the same compound, the “effect on THIK1 (K2P13.1) current” value at THIK1 (K2P13.1) was 0 ± 3%. For the same compound, on K2P18.1 (TRESK), the “effect on K2P18.1 (TRESK) current” value is on record as −2.0 ± 3.5%. Further, the “activator effect on Kv7.2” value on Kv7.2 is on record as “no activator effects”. Further, the “block of Na current in DRG neurons” value in [1] is reported as “not observed”. The “activated current, TASK3 channels” value on TASK3 (K2P9.1) worked out at 0.02 ± 0.005 nA.
